Assay results from ChEMBL document CHEMBL1201862, “PubChem BioAssay data set” (2004).
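Step 1: Grow cells in 96-well plates. Step 2: Expose to compound for 48 hours at 5 concentrations. Step 3: Interpolate endpoints linearly; if unreached, use highest concentration. GI50 = concentration required for 50% inhibition of growth.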 Activity calls are given as the source filed them. No stated cut-off is given here; in the data, active = GI50 up to about 1.1 µM and inactive = higher.

How the values were obtained:
Experiment in all cases: DTP human tumour cell line panel, 48 h
[1] = system: COLO 205
[2] = system: HCT-15
[3] = system: HL-60
[4] = system: HOP-62
[5] = system: HOP-92
[6] = system: HT-29
[7] = system: IGROV-1
[8] = system: LOX IMVI
[9] = system: NCI-H522
[10] = system: OVCAR-4
[11] = system: SF-539
[12] = system: SK-MEL-5
[13] = system: SN12C
[14] = system: SNB-75
[15] = system: UACC-257
[16] = system: UACC-62
[17] = system: UO-31
[18] = system: 786-0
[19] = system: CCRF-CEM
[20] = system: M14

CC12CCC3C(CCC4=CC(O)CCC43C=O)C1(O)CCC2c1ccc(=O)oc1 (stereo not drawn)
GI50 [1]: 0.0169 µM (active) | GI50 [2]: 0.0508 µM | GI50 [3]: 0.00395 µM (active) | GI50 [4]: 0.05 µM (active) | GI50 [5]: 0.0164 µM (active) | GI50 [6]: 0.00929 µM (active) | GI50 [7]: 0.00984 µM (active) | GI50 [8]: 0.00748 µM (active) | GI50 [9]: 0.0015 µM (active) | GI50 [10]: 0.00723 µM (active) | GI50 [11]: 0.00385 µM (active) | GI50 [12]: 0.00622 µM (active) | GI50 [13]: 0.00438 µM (active) | GI50 [14]: 0.011 µM (active) | GI50 [15]: 0.0139 µM (active) | GI50 [16]: 0.05 µM (active) | GI50 [17]: 0.027 µM (active)

COc1cccc(CCn2c(N)c(C#N)c3ccc([N+](=O)[O-])cc3c2=O)c1
GI50 [18]: > 46.5 µM (inactive) | GI50 [19]: 4.35 µM (inactive) | GI50 [1]: > 100 µM (inactive) | GI50 [2]: > 31.6 µM | GI50 [3]: 3.78 µM (inactive) | GI50 [4]: > 31.6 µM (inactive) | GI50 [5]: > 31.6 µM (inactive) | GI50 [6]: > 31.6 µM (inactive) | GI50 [7]: > 31.6 µM (inactive) | GI50 [8]: > 46.5 µM (inactive) | GI50 [20]: > 31.6 µM (inactive) | GI50 [10]: > 84.7 µM (inactive) | GI50 [11]: > 10 µM (inactive) | GI50 [12]: > 100 µM (inactive) | GI50 [13]: > 100 µM (inactive) | GI50 [14]: > 46.5 µM (inactive) | GI50 [15]: > 31.6 µM (inactive) | GI50 [16]: > 31.6 µM (inactive) | GI50 [17]: > 46.5 µM (inactive)

COc1ccc(C(c2ccc(C(C)C)cc(=O)c2O)c2c(O)cc3oc(-c4ccccc4)cc(=O)c3c2O)cc1 (stereo not drawn)
GI50 [18]: 3.57 µM (inactive) | GI50 [19]: 4.04 µM (inactive) | GI50 [1]: 9.79 µM (inactive) | GI50 [2]: 6.9 µM | GI50 [3]: 4.4 µM (inactive) | GI50 [4]: 2.07 µM (inactive) | GI50 [5]: < 0.01 µM (active) | GI50 [6]: 17.7 µM (inactive) | GI50 [7]: 3.91 µM (inactive) | GI50 [8]: 14.6 µM (inactive) | GI50 [20]: 7.26 µM (inactive) | GI50 [10]: 7.53 µM (inactive) | GI50 [11]: 3.05 µM (inactive) | GI50 [12]: 11.5 µM (inactive) | GI50 [13]: 16.5 µM (inactive) | GI50 [14]: 4.51 µM (inactive) | GI50 [15]: 27.4 µM (inactive) | GI50 [16]: 6.65 µM (inactive)

O=C1[C@@H]2[C@@H](CN3CN(c4ccccc4)N=C(c4ccccc4)[C@@]23c2ccccc2)C(=O)N1c1ccccc1
GI50 [18]: 1.88 µM (inactive) | GI50 [19]: 1.45 µM (inactive) | GI50 [1]: 1.91 µM (inactive) | GI50 [2]: 2.3 µM | GI50 [3]: 2.25 µM (inactive) | GI50 [4]: 14 µM (inactive) | GI50 [5]: 1.79 µM (inactive) | GI50 [6]: 2.36 µM (inactive) | GI50 [7]: 13.8 µM (inactive) | GI50 [8]: 1.68 µM (inactive) | GI50 [20]: 2.94 µM (inactive) | GI50 [9]: 0.547 µM (active) | GI50 [10]: 2.61 µM (inactive) | GI50 [12]: 16.9 µM (inactive) | GI50 [13]: 6.58 µM (inactive) | GI50 [14]: 16 µM (inactive) | GI50 [15]: 12 µM (inactive) | GI50 [16]: 5.98 µM (inactive) | GI50 [17]: 1.73 µM (inactive)

CCNCCCCNCC
GI50 [19]: 1600 µM (inactive) | GI50 [1]: > 3750 µM (inactive) | GI50 [2]: > 3750 µM | GI50 [3]: 736 µM (inactive) | GI50 [4]: > 3750 µM (inactive) | GI50 [5]: > 3750 µM (inactive) | GI50 [6]: > 3750 µM (inactive) | GI50 [7]: > 3750 µM (inactive) | GI50 [8]: > 3750 µM (inactive) | GI50 [9]: > 3240 µM (inactive) | GI50 [10]: > 3750 µM (inactive) | GI50 [11]: > 3750 µM (inactive) | GI50 [12]: > 3750 µM (inactive) | GI50 [13]: > 2330 µM (inactive) | GI50 [14]: > 3750 µM (inactive) | GI50 [15]: > 3750 µM (inactive) | GI50 [16]: 2750 µM (inactive) | GI50 [17]: > 1230 µM (inactive)

C[C@H]1COC(c2ccccn2)=N1
GI50 [19]: > 100 µM (inactive) | GI50 [1]: > 100 µM (inactive) | GI50 [2]: > 100 µM | GI50 [3]: > 100 µM (inactive) | GI50 [4]: > 100 µM (inactive) | GI50 [5]: > 100 µM (inactive) | GI50 [6]: > 100 µM (inactive) | GI50 [7]: > 100 µM (inactive) | GI50 [8]: > 100 µM (inactive) | GI50 [9]: > 100 µM (inactive) | GI50 [10]: > 100 µM (inactive) | GI50 [11]: > 100 µM (inactive) | GI50 [12]: > 100 µM (inactive) | GI50 [13]: > 100 µM (inactive) | GI50 [14]: > 100 µM (inactive) | GI50 [15]: > 100 µM (inactive) | GI50 [16]: > 100 µM (inactive) | GI50 [17]: > 100 µM (inactive)

CCOC(=O)/C=C1\Oc2ccccc2C1(C)O (stereo not drawn)
GI50 [18]: > 100 µM (inactive) | GI50 [19]: > 100 µM (inactive) | GI50 [1]: > 100 µM (inactive) | GI50 [2]: > 100 µM | GI50 [3]: > 100 µM (inactive) | GI50 [4]: > 100 µM (inactive) | GI50 [5]: > 100 µM (inactive) | GI50 [6]: > 100 µM (inactive) | GI50 [7]: > 100 µM (inactive) | GI50 [8]: > 100 µM (inactive) | GI50 [20]: > 100 µM (inactive) | GI50 [9]: > 100 µM (inactive) | GI50 [10]: > 100 µM (inactive) | GI50 [12]: > 100 µM (inactive) | GI50 [13]: > 100 µM (inactive) | GI50 [14]: > 100 µM (inactive) | GI50 [15]: > 100 µM (inactive) | GI50 [16]: > 100 µM (inactive) | GI50 [17]: > 100 µM (inactive)

Cc1nc2ccc(C(F)(F)F)cc2nc1Nc1ccc(Cl)c(Cl)c1
GI50 [18]: 4.69 µM (inactive) | GI50 [19]: 6.44 µM (inactive) | GI50 [1]: 3.94 µM (inactive) | GI50 [2]: 6.12 µM | GI50 [3]: 5.62 µM (inactive) | GI50 [4]: 16 µM (inactive) | GI50 [5]: 3.27 µM (inactive) | GI50 [6]: 4.68 µM (inactive) | GI50 [8]: 3.03 µM (inactive) | GI50 [11]: 14.1 µM (inactive) | GI50 [13]: 11.9 µM (inactive) | GI50 [14]: > 10 µM (inactive) | GI50 [15]: 12.8 µM (inactive) | GI50 [16]: 12.9 µM (inactive) | GI50 [17]: 12.2 µM (inactive)
